Experimental data published in patent publication US4820694A, “Modifications of 3-O-demethylmycinose in macrocin and lactenocin” (priority 1986, dated 1989).
Converted amounts (≈) assume the structure as drawn.

How the values were obtained:
[1] = tested on: Pasteurella multocida; test: Pasteurella multocida infection in one-day-old chicks; assay type: in vivo; details: subcutaneously, 30 mg/kg × 2, 1 and 4 hours post-challenge
Experimental: Some of the formula 1 compounds have also shown in vivo antibacterial activity against infections induced by Gram-negative bacteria. Table VI summarizes the results of tests in which illustrative compounds were evaluated against a Pasteurella infection in one-day-old chicks. The compounds were administered by subcutaneous injection at a dosage of 30 mg/kg, 1 and 4 hours post-challenge of the chicks with Pasteurella multocida (0.1 ml of a 10^-4 dilution of a twenty-hour tryptose broth culture of an avian P. multocida given subcutaneously). In these tests, unless indicated otherwise, all non-medicated infected chicks died within 24 hours of Pasteurella challenge.
^a Administered subcutaneously; 30 mg/kg × 2

[2] = tested on: Klebsiella pneumoniae X68; test: standard agar-dilution MIC assay; assay type: cell-based; details: Klebsiella pneumoniae, X68; agar-dilution; read-out: MIC
Experimental: (§1) The MIC's in Table III were determined by standard agar-dilution assays. The MIC's in Table IV were obtained using conventional brothdilution microtiter tests.

[3] = tested on: Streptococcus pyogenes C203; test: standard agar-dilution MIC assay; assay type: cell-based; details: Streptococcus pyogenes, C203
Experimental: as §1

[4] = tested on: Staphylococcus aureus V41; test: standard agar-dilution MIC assay; assay type: cell-based; details: Staphylococcus aureus, V41
Experimental: as §1

[5] = tested on: Pseudomonas aeruginosa X239; test: standard agar-dilution MIC assay; assay type: cell-based; details: Pseudomonas aeruginosa, X239; agar-dilution; read-out: MIC
Experimental: as §1

[6] = tested on: Staphylococcus aureus X400; test: standard agar-dilution MIC assay; assay type: cell-based; details: Staphylococcus aureus, X400
Experimental: as §1

[7] = tested on: Streptococcus Group D 9960; test: standard agar-dilution MIC assay; assay type: cell-based; details: GROUPD9960, read-out: MIC
Experimental: as §1

[8] = tested on: Staphylococcus epidermidis EP12; test: standard agar-dilution MIC assay; assay type: cell-based
Experimental: as §1

[9] = tested on: Escherichia coli EC14; test: standard agar-dilution MIC assay; assay type: cell-based; details: agar-dilution, read-out: MIC
Experimental: as §1

[10] = tested on: Staphylococcus epidermidis EPI1; test: standard agar-dilution MIC assay; assay type: cell-based; details: Staphylococcus epidermidis, EPI1
Experimental: as §1

[11] = tested on: Streptococcus Group D X66; test: standard agar-dilution MIC assay; assay type: cell-based; details: read-out: MIC
Experimental: as §1

[12] = tested on: Staphylococcus aureus X1.1; test: standard agar-dilution MIC assay; assay type: cell-based; details: Staphylococcus aureus, X1.1
Experimental: as §1

[13] = tested on: Streptococcus pneumoniae Park I; test: microbe, parasite or virus in culture; assay type: cell-based; details: Streptococcus pneumoniae
Experimental: as §1

[14] = tested on: Staphylococcus aureus S13E; test: microbe, parasite or virus in culture; assay type: cell-based; details: Staphylococcus aureus, S13E
Experimental: as §1

[15] = tested on: Streptococcus pyogenes C203; test: protection of mice experimentally infected with S. pyogenes C203; assay type: in vivo; details: C203, sc, Subcutaneous, mice, mg/kg × 2, doses given 1 and 4 hours postinfection, read-out: ED50
In short: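 Activity is given as ED50, the mg/kg dose (×2) protecting half of the mice infected with S. pyogenes C203. Compound was dosed 1 and 4 h after infection.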

[16] = tested on: Bordetella bronchiseptica; test: broth-dilution microtiter MIC test; assay type: cell-based; details: Bordetella bronchiseptica; broth-dilution microtiter; read-out: MIC
Experimental: as §1

[17] = tested on: Pasteurella multocida 22A; test: broth-dilution microtiter MIC test; assay type: cell-based; details: Pasteurella multocida, 22A
Experimental: as §1

[18] = tested on: Pasteurella multocida 17E; test: broth-dilution microtiter MIC test; assay type: cell-based; details: Pasteurella multocida, 17E
Experimental: as §1

[19] = tested on: Streptococcus sp. 19F; test: broth-dilution microtiter MIC test; assay type: cell-based; details: Streptococcus, SP.19F
Experimental: as §1

[20] = tested on: Pasteurella hemolytica 23C; test: broth-dilution microtiter MIC test; assay type: cell-based; details: Pasteurella, 23C; broth-dilution microtiter; read-out: MIC
Experimental: as §1

[21] = tested on: Pasteurella multocida 40G; test: broth-dilution microtiter MIC test; assay type: cell-based; details: Pasteurella multocida, 40G
Experimental: as §1

[22] = tested on: Pasteurella multocida 68C; test: broth-dilution microtiter MIC test; assay type: cell-based; details: Pasteurella multocida, 68C
Experimental: as §1

[23] = tested on: Pasteurella hemolytica 41D; test: broth-dilution microtiter MIC test; assay type: cell-based; details: Pasteurella, 41D; broth-dilution microtiter; read-out: MIC
Experimental: as §1

[24] = tested on: Pasteurella hemolytica 22C; test: broth-dilution microtiter MIC test; assay type: cell-based; details: Pasteurella, 22C; broth-dilution microtiter; read-out: MIC
Experimental: as §1

[25] = tested on: Mycoplasma gallisepticum 36H; test: broth-dilution microtiter MIC test; assay type: cell-based; details: Mycoplasmoides gallisepticum, 36H
Experimental: as §1

[26] = tested on: Mycoplasma synoviae 40A; test: broth-dilution microtiter MIC test; assay type: cell-based; details: Mycoplasmopsis synoviae, 40A
Experimental: as §1

[27] = tested on: Mycoplasma hyorhinis 29E; test: broth-dilution microtiter MIC test; assay type: cell-based; details: Mycoplasma, 29E
Experimental: as §1

[28] = tested on: Pasteurella multocida 60A; test: broth-dilution microtiter MIC test; assay type: cell-based; details: Pasteurella multocida, 60A
Experimental: as §1

[29] = tested on: Mycoplasma gallisepticum 29C; test: broth-dilution microtiter MIC test; assay type: cell-based; details: Mycoplasmoides gallisepticum, 29C
Experimental: as §1

[30] = tested on: Staphylococcus aureus 19C; test: broth-dilution microtiter MIC test; assay type: cell-based; details: Staphylococcus aureus, 19C
Experimental: as §1

[31] = tested on: Mycoplasma gallisepticum 15E; test: broth-dilution microtiter MIC test; assay type: cell-based; details: Mycoplasmoides gallisepticum, 15E
Experimental: as §1

Question: CCC1OC(=O)CC(O)C(C)C(OC2OC(C)C(O)C(N(C)C)C2OC(C)=O)C(CC=O)CC(C)C(=O)C=CC(C)=CC1COC1OC(C)C(OC(C)=O)C(OC(C)=O)C1OC (stereo not shown) [Compound 23, 2',3",4"-Tri-O-acetyl-lactenocin] was tested. Which “Number of Deaths/Number Treated” value [1] did it give?
Answer: 10/10

Question: What about the MIC [2] of the same molecule?
Answer: > 128 µg/mL

Question: And the MIC [3]?
Answer: 2 µg/mL (≈ 2.26 µM)

Question: And the MIC [4]?
Answer: 2 µg/mL (≈ 2.26 µM)

Question: And the MIC [5]?
Answer: > 128 µg/mL

Question: What about the MIC [6] of the same molecule?
Answer: 4 µg/mL (≈ 4.52 µM)

Question: And the MIC [7]?
Answer: 4 µg/mL (≈ 4.52 µM)

Question: What about the MIC [8] of the same molecule?
Answer: 2 µg/mL (≈ 2.26 µM)

Question: And the MIC [9]?
Answer: > 128 µg/mL

Question: What about the MIC [10] of the same molecule?
Answer: 2 µg/mL (≈ 2.26 µM)

Question: What about the MIC [11] of the same molecule?
Answer: 8 µg/mL (≈ 9.05 µM)

Question: What about the MIC [12] of the same molecule?
Answer: 2 µg/mL (≈ 2.26 µM)

Question: And the MIC [13]?
Answer: 2 µg/mL (≈ 2.26 µM)

Question: And the MIC [14]?
Answer: 2 µg/mL (≈ 2.26 µM)

Question: And the ED50 [15]?
Answer: 6.8 mg/kg

Question: And the MIC [16]?
Answer: > 50 µg/mL

Question: And the MIC [17]?
Answer: 50 µg/mL (≈ 56.6 µM)

Question: And the MIC [18]?
Answer: 25 µg/mL (≈ 28.3 µM)

Question: And the MIC [19]?
Answer: 1.56 µg/mL (≈ 1.76 µM)

Question: What about the MIC [20] of the same molecule?
Answer: > 50 µg/mL

Question: What about the MIC [21] of the same molecule?
Answer: 50 µg/mL (≈ 56.6 µM)

Question: And the MIC [22]?
Answer: 25 µg/mL (≈ 28.3 µM)

Question: What about the MIC [23] of the same molecule?
Answer: > 50 µg/mL

Question: What about the MIC [24] of the same molecule?
Answer: > 50 µg/mL

Question: What about the MIC [25] of the same molecule?
Answer: 50 µg/mL (≈ 56.6 µM)

Question: What about the MIC [26] of the same molecule?
Answer: 6.25 µg/mL (≈ 7.07 µM)

Question: What about the MIC [27] of the same molecule?
Answer: 12.5 µg/mL (≈ 14.1 µM)

Question: What about the MIC [28] of the same molecule?
Answer: 50 µg/mL (≈ 56.6 µM)

Question: What about the MIC [29] of the same molecule?
Answer: 1.56 µg/mL (≈ 1.76 µM)

Question: And the MIC [30]?
Answer: 6.25 µg/mL (≈ 7.07 µM)

Question: What about the MIC [31] of the same molecule?
Answer: 50 µg/mL (≈ 56.6 µM)
